Results taken from the NIST ThermoML archive (doi:10.1016/j.fluid.2008.03.004).
± gives the expanded uncertainty stated by the source.

Test: xn = mol fraction of the nth substance listed
Settings: 101 kPa, Liquid; for speed of sound: Sing-around technique in a fixed-path interferometer

CCOC(C)(C)C [2-ethoxy-2-methylpropane] + Cc1ccc(C)cc1
Settings | mass density, 305.65 K [kg/m3] | mass density, 308.15 K [kg/m3] | mass density, 310.65 K [kg/m3] | mass density, 313.15 K [kg/m3] | speed of sound, 308.15 K [m/s] | speed of sound, 310.65 K [m/s] | speed of sound, 313.15 K [m/s] | speed of sound, 315.65 K [m/s]
x1 = 0.062 | 842.155 ± 0.43 | 839.962 ± 0.43 | 837.759 ± 0.43 | 835.532 ± 0.44 | 1248.7 ± 2.2 | 1238.5 ± 2.2 | 1228.3 ± 2.2 | 1218.3 ± 2.2
x1 = 0.123 | 834.557 ± 0.44 | 832.343 ± 0.44 | 830.128 ± 0.44 | 827.882 ± 0.45 | 1231.1 ± 2.2 | 1220.9 ± 2.2 | 1210.7 ± 2.2 | 1200.6 ± 2.2
x1 = 0.238 | 820.611 ± 0.46 | 818.339 ± 0.46 | 816.051 ± 0.46 | 813.765 ± 0.47 | 1198.4 ± 2.2 | 1188 ± 2.2 | 1177.8 ± 2.2 | 1167.5 ± 2.2
x1 = 0.35 | 806.841 ± 0.48 | 804.54 ± 0.48 | 802.206 ± 0.48 | 799.872 ± 0.49 | 1166.7 ± 2.2 | 1156.1 ± 2.2 | 1145.7 ± 2.2 | 1135.4 ± 2.2
x1 = 0.455 | 793.966 ± 0.49 | 791.627 ± 0.5 | 789.243 ± 0.5 | 786.866 ± 0.51 | 1137.1 ± 2.2 | 1126.3 ± 2.2 | 1115.8 ± 2.2 | 1105.4 ± 2.2
x1 = 0.557 | 781.512 ± 0.51 | 779.104 ± 0.52 | 776.705 ± 0.52 | 774.27 ± 0.52 | 1108.3 ± 2.2 | 1097.6 ± 2.2 | 1087 ± 2.2 | 1076.4 ± 2.2
x1 = 0.654 | 769.583 ± 0.53 | 767.142 ± 0.53 | 764.679 ± 0.54 | 762.204 ± 0.54 | 1081.2 ± 2.2 | 1070.4 ± 2.2 | 1059.7 ± 2.2 | –
x1 = 0.746 | 758.333 ± 0.55 | 755.854 ± 0.55 | 753.335 ± 0.55 | 750.812 ± 0.56 | 1055.7 ± 2.2 | 1044.9 ± 2.2 | 1034.1 ± 2.2 | –
x1 = 0.834 | 747.515 ± 0.56 | 745.002 ± 0.57 | 742.455 ± 0.57 | 739.901 ± 0.57 | 1031.6 ± 2.2 | 1020.6 ± 2.2 | 1009.8 ± 2.2 | –
x1 = 0.902 | 739.137 ± 0.57 | 736.575 ± 0.58 | 733.99 ± 0.58 | 731.4 ± 0.59 | 1012.8 ± 2.2 | 1001.8 ± 2.2 | 990.86 ± 2.2 | –
x1 = 0.959 | 732.166 ± 0.58 | 729.598 ± 0.59 | 726.994 ± 0.59 | 724.383 ± 0.6 | 997.44 ± 2.2 | 986.36 ± 2.2 | 975.56 ± 2.2 | –
x1 = 1 | 727.038 ± 0.58 | 724.443 ± 0.58 | 721.826 ± 0.59 | 719.179 ± 0.59 | 986.39 ± 2.2 | 975.42 ± 2.2 | 964.53 ± 2.2 | –
